Test system: 743489-274-T-PDC complex spheroid viability
Assay: Anticancer human tumor 743489-274-T-PDC patient-derived renal cell carcinoma cell line growth inhibition
Details: for IC50: curve of first compound; for viability, T/C: stronger effect = lower value
How it was run: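 Multicellular complex spheroids of tumor cells with human endothelial cells (HUVEC) and mesenchymal stem cells; the LSD1 inhibitor iadademstat was combined with standard-of-care or investigational agents. Top concentration at or near clinical Cmax, half-log dilutions; final DMSO ≤0.25%.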

[1] = second compound 0.1 µM, first compound 0.0316 µM
[2] = second compound 0.1 µM, first compound 0.1 µM
[3] = second compound 0.1 µM, first compound 0.316 µM
[4] = second compound 0.1 µM, first compound 1 µM
[5] = second compound 0.1 µM, first compound 3.16 µM
[6] = second compound 0.1 µM, first compound 10 µM
[7] = second compound 0.316 µM, first compound 0.0316 µM
[8] = second compound 0.316 µM, first compound 0.1 µM
[9] = second compound 0.316 µM, first compound 0.316 µM
[10] = second compound 0.316 µM, first compound 1 µM
[11] = second compound 0.316 µM, first compound 3.16 µM
[12] = second compound 0.316 µM, first compound 10 µM
[13] = second compound 1 µM, first compound 0.0316 µM
[14] = second compound 1 µM, first compound 0.1 µM
[15] = second compound 1 µM, first compound 0.316 µM
[16] = second compound 1 µM, first compound 1 µM
[17] = second compound 1 µM, first compound 3.16 µM
[18] = second compound 1 µM, first compound 10 µM
[19] = second compound 3.16 µM, first compound 0.0316 µM
[20] = second compound 3.16 µM, first compound 0.1 µM
[21] = second compound 3.16 µM, first compound 0.316 µM
[22] = second compound 3.16 µM, first compound 1 µM
[23] = second compound 3.16 µM, first compound 3.16 µM
[24] = second compound 3.16 µM, first compound 10 µM
[25] = second compound 10 µM, first compound 0.0316 µM
[26] = second compound 10 µM, first compound 0.1 µM
[27] = second compound 10 µM, first compound 0.316 µM
[28] = second compound 10 µM, first compound 1 µM
[29] = second compound 10 µM, first compound 3.16 µM
[30] = second compound 10 µM, first compound 10 µM
[31] = second compound 0.1 µM, first compound 0.00949 µM
[32] = second compound 0.1 µM, first compound 0.03 µM
[33] = second compound 0.1 µM, first compound 0.0949 µM
[34] = second compound 0.1 µM, first compound 0.3 µM
[35] = second compound 0.316 µM, first compound 0.00949 µM
[36] = second compound 0.316 µM, first compound 0.03 µM
[37] = second compound 0.316 µM, first compound 0.0949 µM
[38] = second compound 0.316 µM, first compound 0.3 µM
[39] = second compound 1 µM, first compound 0.00949 µM
[40] = second compound 1 µM, first compound 0.03 µM
[41] = second compound 1 µM, first compound 0.0949 µM
[42] = second compound 1 µM, first compound 0.3 µM
[43] = second compound 3.16 µM, first compound 0.00949 µM
[44] = second compound 3.16 µM, first compound 0.03 µM
[45] = second compound 3.16 µM, first compound 0.0949 µM
[46] = second compound 3.16 µM, first compound 0.3 µM
[47] = second compound 10 µM, first compound 0.00949 µM
[48] = second compound 10 µM, first compound 0.03 µM
[49] = second compound 10 µM, first compound 0.0949 µM
[50] = second compound 10 µM, first compound 0.3 µM
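Further: spheroids exposed to compounds for 7 days before readout.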
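Wherever viability, T/C is given: 100% = DMSO vehicle control wells.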

CC1(C)CCC(CN2CCN(c3ccc(C(=O)NS(=O)(=O)c4ccc(NCC5CCOCC5)c([N+](=O)[O-])c4)c(Oc4cnc5[nH]ccc5c4)c3)CC2)=C(c2ccc(Cl)cc2)C1 + NC1CC1c1ccc(-c2cccc(O)c2)cc1 showed an IC50 (second compound 0.1 µM) greater than 10 µM, an IC50 (second compound 0.316 µM) greater than 10 µM and an IC50 (second compound 1 µM) greater than 10 µM. It also gave an IC50 (second compound 3.16 µM) greater than 10 µM, an IC50 (second compound 10 µM) greater than 10 µM and a viability, T/C [1] of 90.8%. It also gave a viability, T/C [2] of 119%, a viability, T/C [3] of 106% and a viability, T/C [4] of 110%. It also gave a viability, T/C [5] of 122%, a viability, T/C [6] of 117% and a viability, T/C [7] of 107%. For the same compound, the viability, T/C [8] was 120%, the viability, T/C [9] was 112% and the viability, T/C [10] was 110%. It also gave a viability, T/C [11] of 119%, a viability, T/C [12] of 120% and a viability, T/C [13] of 105%. The viability, T/C [14] was 102%, the viability, T/C [15] was 117% and the viability, T/C [16] was 130%. For the same compound, the viability, T/C [17] was 113%, the viability, T/C [18] was 107% and the viability, T/C [19] was 103%. The viability, T/C [20] was 104%, the viability, T/C [21] was 111% and the viability, T/C [22] was 109%. For the same compound, the viability, T/C [23] was 121%, the viability, T/C [24] was 94.8% and the viability, T/C [25] was 109%. It also gave a viability, T/C [26] of 103%, a viability, T/C [27] of 128% and a viability, T/C [28] of 111%. It also gave a viability, T/C [29] of 113% and a viability, T/C [30] of 95.3%.
CC1COCCN1c1cc(C2(S(C)(=N)=O)CC2)nc(-c2ccnc3[nH]ccc23)n1 (stereo not given) + NC1CC1c1ccc(-c2cccc(O)c2)cc1 was tested, and the IC50 (second compound 0.1 µM) was greater than 10 µM, the IC50 (second compound 0.316 µM) was greater than 10 µM and the IC50 (second compound 1 µM) was greater than 10 µM. It also gave an IC50 (second compound 3.16 µM) greater than 10 µM, an IC50 (second compound 10 µM) greater than 10 µM and a viability, T/C [1] of 94.6%. It also gave a viability, T/C [2] of 103%, a viability, T/C [3] of 92.3% and a viability, T/C [4] of 94.6%. It also gave a viability, T/C [5] of 74.4%, a viability, T/C [6] of 68.3% and a viability, T/C [7] of 99.5%. For the same compound, the viability, T/C [8] was 96.6%, the viability, T/C [9] was 99.6% and the viability, T/C [10] was 101%. For the same compound, the viability, T/C [11] was 90.1%, the viability, T/C [12] was 73.3% and the viability, T/C [13] was 89.6%. The viability, T/C [14] was 101%, the viability, T/C [15] was 104% and the viability, T/C [16] was 95.1%. For the same compound, the viability, T/C [17] was 76.4%, the viability, T/C [18] was 70.8% and the viability, T/C [19] was 107%. For the same compound, the viability, T/C [20] was 114%, the viability, T/C [21] was 97.4% and the viability, T/C [22] was 102%. For the same compound, the viability, T/C [23] was 75.3%, the viability, T/C [24] was 66.6% and the viability, T/C [25] was 114%. The viability, T/C [26] was 102%, the viability, T/C [27] was 104% and the viability, T/C [28] was 110%. It also gave a viability, T/C [29] of 74.7% and a viability, T/C [30] of 70.8%.
With CCN(c1cc(-c2ccc(CN3CCOCC3)cc2)cc(C(=O)NCc2c(C)cc(C)[nH]c2=O)c1C)C1CCOCC1 + NC1CC1c1ccc(-c2cccc(O)c2)cc1 the IC50 (second compound 0.1 µM) was greater than 3 µM, the IC50 (second compound 0.316 µM) was greater than 3 µM and the IC50 (second compound 1 µM) was greater than 3 µM. It also gave an IC50 (second compound 3.16 µM) greater than 3 µM, an IC50 (second compound 10 µM) greater than 3 µM and a viability, T/C [31] of 104%. It also gave a viability, T/C [32] of 110%, a viability, T/C [33] of 95.6% and a viability, T/C [34] of 94.2%. It also gave a viability, T/C (second compound 0.1 µM, first compound 0.949 µM) of 96.1%, a viability, T/C (second compound 0.1 µM, first compound 3 µM) of 102% and a viability, T/C [35] of 111%. It also gave a viability, T/C [36] of 98.3%, a viability, T/C [37] of 102% and a viability, T/C [38] of 96.3%. For the same compound, the viability, T/C (second compound 0.316 µM, first compound 0.949 µM) was 97.2%, the viability, T/C (second compound 0.316 µM, first compound 3 µM) was 111% and the viability, T/C [39] was 104%. For the same compound, the viability, T/C [40] was 107%, the viability, T/C [41] was 103% and the viability, T/C [42] was 102%. It also gave a viability, T/C (second compound 1 µM, first compound 0.949 µM) of 97.2%, a viability, T/C (second compound 1 µM, first compound 3 µM) of 104% and a viability, T/C [43] of 96.6%. It also gave a viability, T/C [44] of 104%, a viability, T/C [45] of 92.8% and a viability, T/C [46] of 99.7%. For the same compound, the viability, T/C (second compound 3.16 µM, first compound 0.949 µM) was 108%, the viability, T/C (second compound 3.16 µM, first compound 3 µM) was 102% and the viability, T/C [47] was 101%. It also gave a viability, T/C [48] of 100%, a viability, T/C [49] of 106% and a viability, T/C [50] of 101%. For the same compound, the viability, T/C (second compound 10 µM, first compound 0.949 µM) was 106% and the viability, T/C (second compound 10 µM, first compound 3 µM) was 104%.
Nc1ncn(C2CC(O)C(CO)S2)c(=O)n1 (stereo not given) + NC1CC1c1ccc(-c2cccc(O)c2)cc1 gave an IC50 (second compound 0.1 µM) greater than 0.3 µM, an IC50 (second compound 0.316 µM) greater than 0.3 µM and an IC50 (second compound 1 µM) greater than 0.3 µM. For the same compound, the IC50 (second compound 3.16 µM) was greater than 0.3 µM, the IC50 (second compound 10 µM) was greater than 0.3 µM and the viability, T/C (second compound 0.1 µM, first compound 0.000949 µM) was 102%. It also gave a viability, T/C (second compound 0.1 µM, first compound 0.003 µM) of 94.5%, a viability, T/C [31] of 105% and a viability, T/C [32] of 85.3%. For the same compound, the viability, T/C [33] was 76.2%, the viability, T/C [34] was 74.8% and the viability, T/C (second compound 0.316 µM, first compound 0.000949 µM) was 95.4%. The viability, T/C (second compound 0.316 µM, first compound 0.003 µM) was 102%, the viability, T/C [35] was 90.6% and the viability, T/C [36] was 83.3%. For the same compound, the viability, T/C [37] was 74.3%, the viability, T/C [38] was 71.1% and the viability, T/C (second compound 1 µM, first compound 0.000949 µM) was 94.2%. For the same compound, the viability, T/C (second compound 1 µM, first compound 0.003 µM) was 89.6%, the viability, T/C [39] was 81.5% and the viability, T/C [40] was 77.4%. It also gave a viability, T/C [41] of 73.5%, a viability, T/C [42] of 73.2% and a viability, T/C (second compound 3.16 µM, first compound 0.000949 µM) of 96.5%. It also gave a viability, T/C (second compound 3.16 µM, first compound 0.003 µM) of 85.8%, a viability, T/C [43] of 83% and a viability, T/C [44] of 78.5%. It also gave a viability, T/C [45] of 75.1%, a viability, T/C [46] of 78% and a viability, T/C (second compound 10 µM, first compound 0.000949 µM) of 92.3%. The viability, T/C (second compound 10 µM, first compound 0.003 µM) was 85.1%, the viability, T/C [47] was 86.9% and the viability, T/C [48] was 89%. The viability, T/C [49] was 67.8% and the viability, T/C [50] was 64%.
